According to US10550116B2, “Fused bicyclic heterocycle derivatives as pesticides” (BAYER CROPSCIENCE AKTIENGESELLSCHAFT, priority 2015, dated 2020):
Each block holds one molecule with its values, some of them ahead of it.

Tests used:
Tetranychus urticae = Tetranychus urticae spray test, OP-resistant; format: in vivo; conditions: foliar, 144 h, bean leaf discs, after 6 days, read-out: efficacy
Procedure: To produce a suitable active ingredient preparation, 1 part by weight of active ingredient is dissolved with the stated parts by weight of solvent and made up with water containing an emulsifier concentration of 1000 ppm until the desired concentration is attained. To produce further test concentrations, the preparation is diluted with emulsifier-containing water. Discs of bean leaves (Phaseolus vulgaris) infested with all stages of the greenhouse red spider mite (Tetranychus urticae) are sprayed with an active ingredient preparation of the desired concentration. After 6 days, the efficacy in % is determined. 100% means that all the spider mites have been killed; 0% means that no spider mites have been killed.

[1] = log P by HPLC on reversed-phase column (EEC Directive 79/831 Annex V.A8); format: physicochemical; conditions: reversed-phase C18 HPLC column; pH 7.8, aqueous ammonium hydrogencarbonate/acetonitrile; 55° C.; read-out: log P (neutral)
Procedure: The log P values are measured according to EEC Directive 79/831 Annex V.A8 by HPLC (high-performance liquid chromatography) on a reversed-phase column (C 18). Temperature: 55° C. The LC-MS determination in the acidic range is effected at pH 2.7 using 0.1% aqueous formic acid and acetonitrile (contains 0.1% formic acid) as eluents; linear gradient from 10% acetonitrile to 95% acetonitrile. Called log P (HCOOH) in the table. LC-MS determination in the neutral range is effected at pH 7.8 with 0.001 molar aqueous ammonium hydrogencarbonate solution and acetonitrile as eluents; linear gradient from 10% acetonitrile to 95% acetonitrile. Called log P (neutral) in the table. Calibration is carried out using unbranched alkan-2-ones (having 3 to 16 carbon atoms) with known log P values (log P values determined on the basis of the retention times by linear interpolation between two successive alkanones).

Myzus persicae = Myzus persicae spray test; format: in vivo; conditions: foliar, Chinese cabbage leaf discs, after 5-6 days, read-out: efficacy
Procedure: (§1) To produce a suitable active ingredient preparation, 1 part by weight of active ingredient is dissolved with the stated parts by weight of solvent and made up with water containing an emulsifier concentration of 1000 ppm until the desired concentration is attained. To produce further test concentrations, the preparation is diluted with emulsifier-containing water. Discs of Chinese cabbage leaves (Brassica pekinensis) infested by all stages of the green peach aphid (Myzus persicae) are sprayed with an active ingredient preparation of the desired concentration. After 5-6 days, the efficacy in % is determined. 100% means that all the aphids have been killed; 0% means that no aphids have been killed.

Phaedon cochleariae = Phaedon cochleariae spray test; format: in vivo; conditions: foliar, 168 h, larvae on Chinese cabbage leaf discs, after 7 days, read-out: efficacy
Procedure: as §1, with “pekinensis)” for “pekinensis) infested by all stages of the green peach aphid (Myzus persicae)”, “concentration and, after drying, populated with larvae of the mustard beetle (Phaedon cochleariae).” for “concentration.”, “7” for “5-6”, “beetle larvae” for “aphids”

Spodoptera frugiperda = Spodoptera frugiperda spray test; format: in vivo; conditions: foliar, 168 h, caterpillars on maize leaf discs, after 7 days, read-out: efficacy
Procedure: To produce a suitable active ingredient preparation, 1 part by weight of active ingredient is dissolved with the stated parts by weight of solvent and made up with water containing an emulsifier concentration of 1000 ppm until the desired concentration is attained. To produce further test concentrations, the preparation is diluted with emulsifier-containing water. Leaf discs of maize (Zea mays) are sprayed with an active ingredient preparation of the desired concentration and, after drying, populated with caterpillars of the armyworm (Spodoptera frugiperda). After 7 days, the efficacy in % is determined. 100% means that all the caterpillars have been killed; 0% means that no caterpillar has been killed.

Meloidogyne incognita = Meloidogyne incognita test; format: in vivo; conditions: 20 ppm; lettuce; after 14 days
Procedure: To produce a suitable preparation of active ingredient, 1 part by weight of active ingredient is mixed with the stated amount of solvent and the concentrate is diluted with water to the desired concentration. Vessels are filled with sand, active ingredient solution, an egg/larvae suspension of the southern root-knot nematode (Meloidogyne incognita) and lettuce seeds. The lettuce seeds germinate and the plants develop. The galls develop on the roots. After 14 days, the nematicidal efficacy in % is determined by the formation of galls. 100% means that no galls were found; 0% means that the number of galls on the treated plants corresponds to the untreated control.

chromatographic logP [1]: 3.96
SMILES: CCS(=O)(=O)c1cc2ccccc2nc1-c1nc2cc(SC(F)(F)F)ccc2n1C [Example I-21, 3-Ethylsulphonyl-2-[1-methyl-5-(trifluoromethylsulphanyl)benzimidazol-2-yl]quinoline]
pest or weed control at 100 g/ha (Myzus persicae): 100%
pest or weed control at 100 g/ha (Phaedon cochleariae): 100%
pest or weed control at 100 g/ha (Spodoptera frugiperda): 100%
pest or weed control at 20 g/ha (Tetranychus urticae): 70%

chromatographic logP [1]: 2.79
SMILES: CCS(=O)(=O)c1cc2ccccc2nc1-c1nc2cc([S+]([O-])C(F)(F)F)ccc2n1C (centres unmarked) [Example I-23, 3-Ethylsulphonyl-2-[1-methyl-5-(trifluoromethylsulphinyl)benzimidazol-2-yl]quinoline]
pest or weed control at 100 g/ha (Myzus persicae): 100%
pest or weed control at 100 g/ha (Phaedon cochleariae): 100%
pest or weed control at 100 g/ha (Spodoptera frugiperda): 100%
pest or weed control at 20 g/ha (Tetranychus urticae): 100%

chromatographic logP [1]: 5.43
SMILES: CCSc1cc2ccccc2nc1-c1nc2cc(SC(F)(F)F)ccc2o1 [Example I-29, 2-(3-Ethylsulphanyl-2-quinolyl)-5-(trifluoromethylsulphanyl)-1,3-benzoxazole]
pest or weed control at 100 g/ha (Tetranychus urticae): 70%

chromatographic logP [1]: 4.63
SMILES: CCSc1cc2ccccc2nc1-c1nc2cc(SC(F)(F)F)ccc2n1C [Example I-34, 3-Ethylsulphanyl-2-[1-methyl-5-(trifluoromethylsulphanyl)benzimidazol-2-yl]quinoline]
pest or weed control at 100 g/ha (Tetranychus urticae): 100%

chromatographic logP [1]: 3.23
SMILES: CCSc1cnc2nc(-c3nc4cc(C(F)(F)F)ncc4n3C)c(SCC)cc2c1 [Example I-40, 3,6-Bis(ethylsulphanyl)-2-[3-methyl-6-(trifluoromethyl)-3H-imidazo[4,5-c]pyridin-2-yl]-1,8-naphthyridine]
nematicidal efficacy (formation of galls) (Meloidogyne incognita): 90%
pest or weed control at 20 g/ha (Tetranychus urticae): 70%

The remaining lines, values behind:

SMILES: CCSc1nc2ccccc2nc1-c1nc2cc(C(F)(F)F)ncc2n1C [Example I-4, 2-Ethylsulphanyl-3-[3-methyl-6-(trifluoromethyl)imidazo[4,5-c]pyridin-2-yl]quinoxaline]
pest or weed control at 100 g/ha (Tetranychus urticae): 70%
chromatographic logP [1]: 4.1

SMILES: CCS(=O)(=O)c1cc2ccc(Cl)cc2nc1-c1nc2cc(C(F)(F)F)ncc2n1C [Example I-8, 7-Chloro-3-ethylsulphonyl-2-[3-methyl-6-(trifluoromethyl)imidazo[4,5-c]pyridin-2-yl]quinoline]
pest or weed control at 500 g/ha (Myzus persicae): 90%
pest or weed control at 500 g/ha (Phaedon cochleariae): 100%
pest or weed control at 500 g/ha (Spodoptera frugiperda): 100%
chromatographic logP [1]: 2.63

SMILES: CCS(=O)(=O)c1cc2ccccc2nc1-c1cn2cnc(C(F)(F)F)cc2n1 [Example I-11, 3-(Ethylsulphonyl)-2-[7-(trifluoromethyl)imidazo[1,2-c]pyrimidin-2-yl]quinoline]
pest or weed control at 500 g/ha (Myzus persicae): 70%
pest or weed control at 500 g/ha (Phaedon cochleariae): 100%
pest or weed control at 500 g/ha (Spodoptera frugiperda): 100%
chromatographic logP [1]: 2.63

SMILES: CCS(=O)(=O)c1cc2ccccc2nc1-c1nc2cc(C(F)(F)F)cnc2o1 [Example I-13]
pest or weed control at 500 g/ha (Myzus persicae): 100%
pest or weed control at 100 g/ha (Phaedon cochleariae): 100%
pest or weed control at 500 g/ha (Spodoptera frugiperda): 83%
chromatographic logP [1]: 3.27

SMILES: CCS(=O)(=O)c1cc2ccccc2nc1-c1nc2cc(SC(F)(F)F)ccc2o1 [Example I-14, 2-(3-Ethylsulphonyl-2-quinolyl)-5-(trifluoromethylsulphanyl)-1,3-benzoxazole]
pest or weed control at 500 g/ha (Myzus persicae): 90%
pest or weed control at 500 g/ha (Phaedon cochleariae): 100%
pest or weed control at 500 g/ha (Spodoptera frugiperda): 100%
chromatographic logP [1]: 4.17

SMILES: CCS(=O)(=O)c1cc2ccccc2nc1-c1nc2cc3c(cc2n1C)OC(F)(F)O3 [Example I-16, 6-(3-Ethylsulphonyl-2-quinolyl)-2,2-difluoro-7-methyl-[1,3]dioxolo[4,5-f]benzimidazole]
pest or weed control at 500 g/ha (Myzus persicae): 90%
pest or weed control at 500 g/ha (Phaedon cochleariae): 100%
pest or weed control at 500 g/ha (Spodoptera frugiperda): 100%
chromatographic logP [1]: 3.39

SMILES: CCS(=O)(=O)c1cc2ccccc2nc1-c1nc2cc(S(=O)(=O)C(F)(F)F)ccc2o1 [Example I-18, 2-(3-Ethylsulphonyl-2-quinolyl)-5-(trifluoromethylsulphonyl)-1,3-benzoxazole]
pest or weed control at 100 g/ha (Myzus persicae): 100%
pest or weed control at 100 g/ha (Phaedon cochleariae): 100%
pest or weed control at 100 g/ha (Spodoptera frugiperda): 100%
pest or weed control at 100 g/ha (Tetranychus urticae): 70%
chromatographic logP [1]: 3.62

SMILES: CCS(=O)(=O)c1cc2ccccc2nc1-c1nc2cc([S+]([O-])C(F)(F)F)ccc2o1 (centres unmarked) [Example I-19, 2-(3-Ethylsulphonyl-2-quinolyl)-5-(trifluoromethylsulphinyl)-1,3-benzoxazole]
pest or weed control at 100 g/ha (Myzus persicae): 90%
pest or weed control at 100 g/ha (Phaedon cochleariae): 100%
pest or weed control at 100 g/ha (Spodoptera frugiperda): 100%
chromatographic logP [1]: 3.05

SMILES: CCS(=O)(=O)c1cc2ccccc2nc1-c1nc2cc(C(F)(F)F)nnc2n1C [Example I-22]
pest or weed control at 100 g/ha (Myzus persicae): 100%
pest or weed control at 100 g/ha (Spodoptera frugiperda): 100%
pest or weed control at 100 g/ha (Tetranychus urticae): 90%

SMILES: CCSc1cc2ccccc2nc1-c1nc2cc(C(F)(F)F)ccc2o1 [Example I-32]
nematicidal efficacy (formation of galls) (Meloidogyne incognita): 100%

SMILES: CC[S+]([O-])c1cc2ccccc2nc1-c1nc2cc3c(cc2[nH]1)OC(F)(F)O3 (centres unmarked) [Example I-36]
pest or weed control at 100 g/ha (Tetranychus urticae): 90%

SMILES: CCSc1cc2ccccc2nc1-c1nc2cc(C(F)(F)C(F)(F)F)cnc2n1C [Example I-37]
pest or weed control at 100 g/ha (Tetranychus urticae): 90%

SMILES: CCSc1c(-c2nc3cc(C(F)(F)F)ncc3n2C)ncc2ccccc12 [I′-42]
pest or weed control at 500 g/ha (Myzus persicae): 90%
pest or weed control at 500 g/ha (Tetranychus urticae; 500 g/ha): 70%
